Assay results from patent US11466044B2 (WAYNE STATE UNIVERSITY, priority 2017, dated 2022).
In brackets after ≈: the same amount, converted by molar mass.

Experiments:
[1] = system: rabbit reticulocyte ribosomes; assay: in-vitro translation assay, rabbit reticulocyte ribosomes; format: biochemical; details: mammalian cytosolic ribosomes (rabbit)
[2] = system: E coli carrying specific resistance determinants; assay: MIC by broth microdilution, E coli carrying specific resistance determinants; format: cell-based; details: for MIC AG003 E. coli AAC(3)-II: clinical isolate AG003, AAC(3)-II; for MIC AG036 ANT(4′,4′′): E. coli strain AG036, ANT(4′,4′′); for MIC AG037 APH(3′)-III: E. coli strain AG037, APH(3′)-III; for MIC AG103 armA: E. coli strain AG103, armA; for MIC pH421 APH(3)-I: E. coli strain pH421, APH(3)-I; for MIC pH422 APH(3′)-II: E. coli strain pH422, APH(3′)-II; for MIC pH423 APH(3′)-VI: E. coli strain pH423, APH(3′)-VI; for MIC pH432 ANT(4′): E. coli strain pH432, ANT(4′)
[3] = system: A1555G mutant mitochondrial ribosome (human chimeric); assay: in-vitro translation assay, human chimeric ribosomes, A1555G mutant mitochondrial decoding site; format: biochemical; details: human mitochondrial decoding site with A1555G point mutation; read-out: IC50 Mitoch. A1555G
Text: (§1) The antiribosomal activity of these compounds was investigated with cell-free translation assays using both wild type bacterial ribosomes and hybrid ribosomes carrying eukaryotic decoding A sites enabling the prediction of selectivity.

E coli wild type = assay: MIC by broth microdilution, wild type E coli; format: cell-based; details: for MIC AG001 E. coli WT: clinical isolate AG001, WT; for MIC AG055 E. coli WT: clinical isolate AG055, WT; for MIC pH430 WT: E. coli strain pH430, WT
[4] = system: mitochondrial ribosome (human chimeric); format: biochemical; details: for IC50: ribosomes with a human mitochondrial decoding site, read-out: IC50 Mitoch.
Text: as §1

[5] = system: cytosolic ribosome (human chimeric); format: biochemical; details: for IC50: ribosomes with a human cytosolic decoding site, read-out: IC50 Cytosolic
Text: as §1

P aeruginosa = assay: MIC by broth microdilution, P aeruginosa isolates; format: cell-based, Pseudomonas aeruginosa; details: for MIC AG031 P. aer. APH(3′)-II: clinical isolate AG031, APH(3′)-II; for MIC AG032 P. aer. APH(3′)-II: clinical isolate AG032, APH(3′)-II
MRSA = assay: MIC by broth microdilution, MRSA isolates; format: cell-based; details: for MIC AG038 MRSA: clinical isolate AG038; for MIC AG039 MRSA AAC(6′)-I ANT(4′)-I: clinical isolate AG039, AAC(6′)-I ANT(4′)-I; for MIC AG042 MRSA AAC(6′)-I ANT(4′)-I APH(2′): clinical isolate AG042, AAC(6′)-I ANT(4′)-I APH(2′); for MIC AG044 MRSA: clinical isolate AG044
[6] = system: wild type bacterial ribosomes; assay: in-vitro translation assay, bacterial ribosomes; format: biochemical; details: Mycobacterium smegmatis ribosomes; read-out: IC50 Bacterial
Text: as §1

Row | SMILES | IC50 [1] [µM] | MIC AG003 E. coli AAC(3)-II [2] [µg/mL] | IC50 [3] [µM] | MIC AG001 E. coli WT (E coli wild type) [µg/mL] | MIC AG055 E. coli WT (E coli wild type) [µg/mL] | IC50 [4] [µM] | IC50 [5] [µM] | MIC AG031 P. aer. APH(3′)-II (P aeruginosa) [µg/mL] | MIC AG032 P. aer. APH(3′)-II (P aeruginosa) [µg/mL] | MIC AG038 MRSA (MRSA) [µg/mL] | MIC AG039 MRSA AAC(6′)-I ANT(4′)-I (MRSA) [µg/mL] | MIC AG042 MRSA AAC(6′)-I ANT(4′)-I APH(2′) (MRSA) [µg/mL] | MIC AG044 MRSA (MRSA) [µg/mL] | IC50 [6] [µM] | MIC pH430 WT (E coli wild type) | other results
1 | NC[C@H]1O[C@H](O[C@H]2[C@H](O[C@@H]3O[C@H](CO)[C@@H](O)[C@H]3O)[C@@H](O)[C@H](N)C[C@@H]2N)[C@H](N)C[C@@H]1O [DC047] | 157 | 8 (≈ 18.2 µM) | 119 | 8 to 16 | 8 to 16 | 325 | 293 | 4 (≈ 9.12 µM) | 4 (≈ 9.12 µM) | 8 (≈ 18.2 µM) | >128 | >128 | 8 to 16 | 0.1 |  | 
2 | NC[C@H]1O[C@H](O[C@H]2[C@H](O[C@@H]3O[C@H](CNC=O)[C@@H](O)[C@H]3O)[C@@H](O)[C@H](N)C[C@@H]2N)[C@H](N)[C@@H](O)[C@@H]1O [DC130] | 152 | 32 (≈ 66.5 µM) | 190 | 32 (≈ 66.5 µM) | 32 (≈ 66.5 µM) | 364 | 359 | >128 | >128 | 64 (≈ 133 µM) | >128 | >128 | 128 (≈ 266 µM) | 0.24 |  | 
3 | NCC1OC(OC2C(CNC=O)OC(OC3C(O)C(N)CC(N)C3OC3OC(CO)C(O)C(O)C3N)C2O)C(N)C(O)C1O (stereo not shown) [DC137] | 29 | 2 to 4 | 30 | 4 (≈ 6.22 µM) | 2 to 4 | 144 | 90 | ≥128 | 128 (≈ 199 µM) | 4 (≈ 6.22 µM) | >128 | >128 | 2 to 4 | 0.04 |  | 
4 | NCC1OC(OC2C(CNC(N)=O)OC(OC3C(O)C(N)CC(N)C3OC3OC(CO)C(O)C(O)C3N)C2O)C(N)C(O)C1O (stereo not shown) [DC141] | 29 | 4 (≈ 6.08 µM) | 28 | 8 (≈ 12.2 µM) | 4 (≈ 6.08 µM) | 70 | 89 | >128 | >128 | 4 to 8 | >128 | >128 | 4 (≈ 6.08 µM) | 0.03 |  | 
5 | CCCC(O)C1OC(OC2C(N)CC(N)C(O)C2OC2OC(CO)C(OC3OC(CN)C(O)C(O)C3N)C2O)C(N)C(O)C1O (stereo not shown) [DC142] | 12 | 8 (≈ 12.2 µM) | 20 | 8 (≈ 12.2 µM) | 8 (≈ 12.2 µM) | 107 | 34 | >128 | >128 | 4 (≈ 6.08 µM) | >128 | >128 | 2 (≈ 3.04 µM) | 0.04 | 1 μg/ml | MIC AG036 ANT(4′,4′′) [2]: 32 to 64 µg/mL; MIC AG037 APH(3′)-III [2]: >32 µg/mL; MIC AG103 armA [2]: 1 µg/mL (≈ 1.52 µM); MIC pH414 AAC(6′)-I ([2]; E. coli strain pH414, AAC(6′)-I): 1 μg/ml; MIC pH415 AAC(6′)-II ([2]; E. coli strain pH415, AAC(6′)-II): 1 μg/ml; MIC pH421 APH(3)-I [2]: >32 μg/ml; MIC pH422 APH(3′)-II [2]: >32 μg/ml; MIC pH423 APH(3′)-VI [2]: >32 μg/ml; MIC pH432 ANT(4′) [2]: 1 μg/ml
6 | CCCC(O)C1OC(OC2C(N)CC(N)C(O)C2OC2OC(CO)C(OC3OC(CN)C(O)C(O)C3N)C2O)C(N)C(O)C1O (stereo not shown) [DC143] | 66 | 32 (≈ 48.7 µM) | 93 | 32 (≈ 48.7 µM) | 32 (≈ 48.7 µM) | 328 | 259 | >64 | >64 | 32 to 64 | >64 | >64 | 16 (≈ 24.3 µM) | 0.16 | 4 μg/ml | MIC AG036 ANT(4′,4′′) [2]: 64 µg/mL (≈ 97.3 µM); MIC AG037 APH(3′)-III [2]: >128 µg/mL; MIC AG103 armA [2]: 16 to 32 µg/mL; MIC pH421 APH(3)-I [2]: >128 μg/ml; MIC pH422 APH(3′)-II [2]: >128 μg/ml; MIC pH423 APH(3′)-VI [2]: 32-64 μg/ml; MIC pH432 ANT(4′) [2]: 4 μg/ml
7 | CC1CC(N)C2OC(OC3C(N)CC(N)C(O)C3OC3OC(CO)C(OC4OC(CN)C(O)C(O)C4N)C3O)C(N)C(O)C2O1 (stereo not shown) [DC150] | 13 | >128 | 2.3 | >128 | >128 | 4.1 | 12 | >128 | >128 | 128 (≈ 196 µM) | 128 (≈ 196 µM) | 128 (≈ 196 µM) | 128 (≈ 196 µM) | 0.48 | 64-128 μg/ml | Target specificity bacterial vs. Mitochondrial ([4]; relative target specificity, bacterial vs. human mitochondrial): low; Target specificity bacterial vs. Cytosolic ([5]; relative target specificity, bacterial vs. human cytosolic): low
8 | NCC1OC(OC2C(CNC=O)OC(OC3C(O)C(N)CC(N)C3OC3OC(CO)C(O)CC3N)C2O)C(N)C(O)C1O (stereo not shown) [DC153] | 57 | 4 (≈ 6.38 µM) | 39 | 4 (≈ 6.38 µM) | 2 to 4 | 144 | 132 | 32 to 64 | 32 (≈ 51.1 µM) | 4 (≈ 6.38 µM) | >128 | >128 | 4 (≈ 6.38 µM) | 0.12 |  | 
